Experimental data published in patent EP0114128A1, “3-Amino-2-oxo-azetidine derivatives containing in position 1 a nitrogen heterocyclic radical, process for their preparation, their use as therapeutical agents and intermediates for their preparation” (priority 1983, dated 1984).
≈ marks a conversion by molar mass, not a printed value. Read-outs that look alike come from different tables or passages of the source.

Tests used:
Assay in all cases: In vitro activity, dilution method in liquid medium (MIC)
Format in all cases: cell-based
[1] = tested on: Enterobacter cloacae 1321 E; conditions: read-out: concentrations minimales inhibitrices (C. M. I.)
Protocol: (§1) Etude pharmacologiaue des produits de l'invention. Activité in vitro, méthode des dilutions en milieu liquide.
(§2) On prépare une série de tubes dans lesquels on répartit une même quantité de milieu nutritif stérile. On distribue dans chaque tube des quantités croissantes du produit à étudier, puis chaque tube est ensemencé avec une souche bactérienne. Après incubation de vingt-quatre ou quarante-huit heures à l'étuve à 37°C, l'inhibition de la croissance est appréciée par transillumination ce qui permet de déterminer les concentrations minimales inhibitrices (C. M. I.) exprimées en µg/cm3.

Escherichia Coli 078 = conditions: read-out: concentrations minimales inhibitrices (C. M. I.)
Protocol: as §1, §2

Escherichia Coli 1507 E = conditions: COLI1507E, read-out: concentrations minimales inhibitrices (C. M. I.)
Protocol: as §1, §2

Escherichia Coli 1894 = conditions: read-out: concentrations minimales inhibitrices (C. M. I.)
Protocol: as §1, §2

Escherichia Coli DC0 = conditions: read-out: concentrations minimales inhibitrices (C. M. I.)
Protocol: as §1, §2

Escherichia Coli DC2 = conditions: read-out: concentrations minimales inhibitrices (C. M. I.)
Protocol: as §1, §2

Escherichia Coli TEM = conditions: read-out: concentrations minimales inhibitrices (C. M. I.)
Protocol: as §1, §2

[2] = tested on: Klebsiella Aeruginosa 1522 E; conditions: read-out: concentrations minimales inhibitrices (C. M. I.)
Protocol: as §1, §2

[3] = tested on: Klebsiella pneumonae 52145; conditions: read-out: concentrations minimales inhibitrices (C. M. I.)
Protocol: as §1, §2

Proteus mirabilis A 235 = conditions: read-out: concentrations minimales inhibitrices (C. M. I.)
Protocol: as §1, §2

Proteus vulgaris A 232 = conditions: read-out: concentrations minimales inhibitrices (C. M. I.)
Protocol: as §1, §2

Providencia DU 48 = conditions: read-out: concentrations minimales inhibitrices (C. M. I.)
Protocol: as §1, §2

[4] = tested on: Salmonella typhimurium MZ 11; conditions: Salmonella enterica, read-out: concentrations minimales inhibitrices (C. M. I.)
Protocol: as §1, §2

Serratia marcesceus 2532 = conditions: read-out: concentrations minimales inhibitrices (C. M. I.)
Protocol: as §1, §2

[5] = tested on: Pseudomonas aeruginosa 1771 m; conditions: read-out: concentrations minimales inhibitrices (C. M. I.)
Protocol: as §1, §2

[6] = COLI078, 24 H incubation at 37°C
[7] = COLI078, 48 H incubation at 37°C
[8] = COLI1894, 24 H incubation at 37°C
[9] = COLI1894, 48 H incubation at 37°C
[10] = COLIDC0, 24 H incubation at 37°C
[11] = COLIDC0, 48 H incubation at 37°C
[12] = COLIDC2, 24 H incubation at 37°C
[13] = COLIDC2, 48 H incubation at 37°C

SMILES	MIC ([1]; 24 H incubation at 37°C) [µg/mL]	MIC ([1]; 48 H incubation at 37°C) [µg/mL]	MIC (Escherichia Coli 078; [6]) [µg/mL]	MIC (Escherichia Coli 078; [7]) [µg/mL]	MIC (Escherichia Coli 1507 E; 24 H incubation at 37°C) [µg/mL]	MIC (Escherichia Coli 1507 E; 48 H incubation at 37°C) [µg/mL]	MIC (Escherichia Coli 1894; [8]) [µg/mL]	MIC (Escherichia Coli 1894; [9]) [µg/mL]	MIC (Escherichia Coli DC0; [10]) [µg/mL]	MIC (Escherichia Coli DC0; [11]) [µg/mL]	MIC (Escherichia Coli DC2; [12]) [µg/mL]	MIC (Escherichia Coli DC2; [13]) [µg/mL]	MIC (Escherichia Coli TEM; 24 h) [µg/mL]	MIC (Escherichia Coli TEM; 48 h) [µg/mL]	MIC ([2]; 24 H incubation at 37°C) [µg/mL]	MIC ([2]; 48 H incubation at 37°C) [µg/mL]	MIC ([3]; 24 H incubation at 37°C) [µg/mL]	MIC ([3]; 48 H incubation at 37°C) [µg/mL]	MIC (Proteus mirabilis A 235; A235, 24 H incubation at 37°C) [µg/mL]	MIC (Proteus mirabilis A 235; A235, 48 H incubation at 37°C) [µg/mL]	further results
C[C@@H]1[C@H](NC(=O)/C(=N\OC(F)F)c2csc(N)n2)C(=O)N1c1nn[nH]n1 (racemic) [Prod. ex. 4]	1.2 (≈ 3.1 µM)	1.2 (≈ 3.1 µM)	0.3 (≈ 0.775 µM)	0.3 (≈ 0.775 µM)	0.15 (≈ 0.387 µM)	0.15 (≈ 0.387 µM)	≤ 0.04	≤ 0.04	1.2 (≈ 3.1 µM)	1.2 (≈ 3.1 µM)	≤ 0.04	≤ 0.04	0.6 (≈ 1.55 µM)	1.2 (≈ 3.1 µM)	1.2 (≈ 3.1 µM)	1.2 (≈ 3.1 µM)	5 (≈ 12.9 µM)	5 (≈ 12.9 µM)	0.3 (≈ 0.775 µM)	0.3 (≈ 0.775 µM)	MIC (Proteus vulgaris A 232; A232, 24 H incubation at 37°C): 0.3 µg/mL (≈ 0.775 µM); MIC (Proteus vulgaris A 232; A232, 48 H incubation at 37°C): 0.3 µg/mL (≈ 0.775 µM); MIC (Providencia DU 48; DU48, 24 H incubation at 37°C): 2.5 µg/mL (≈ 6.45 µM); MIC (Providencia DU 48; DU48, 48 H incubation at 37°C): 2.5 µg/mL (≈ 6.45 µM); MIC ([4]; 24 H incubation at 37°C): 1.2 µg/mL (≈ 3.1 µM); MIC ([4]; 48 H incubation at 37°C): 1.2 µg/mL (≈ 3.1 µM); MIC (Serratia marcesceus 2532; 24 H incubation at 37°C): 20 µg/mL (≈ 51.6 µM); MIC (Serratia marcesceus 2532; 48 H incubation at 37°C): 20 µg/mL (≈ 51.6 µM)
CO/N=C(\C(=O)N[C@@H]1C(=O)N(c2nn[nH]n2)[C@@H]1CF)c1csc(N)n1 (racemic) [Prod. ex. 11, (3SR,4SR) 3-//2-(2-aminothiazol-4-yl) 2-méthoxyimino acétyl/ amino/ 4-(fluorométhyl) 1-(1-H-tétrazol-5-yl) 2-azétidinone]	0.3 (≈ 0.812 µM)	0.3 (≈ 0.812 µM)	0.15 (≈ 0.406 µM)	0.15 (≈ 0.406 µM)	0.08 (≈ 0.217 µM)	0.08 (≈ 0.217 µM)	≤ 0.04	≤ 0.04	0.6 (≈ 1.62 µM)	0.6 (≈ 1.62 µM)	0.15 (≈ 0.406 µM)	0.15 (≈ 0.406 µM)	0.6 (≈ 1.62 µM)	0.6 (≈ 1.62 µM)	0.6 (≈ 1.62 µM)	0.6 (≈ 1.62 µM)	1.2 (≈ 3.25 µM)	1.2 (≈ 3.25 µM)	0.15 (≈ 0.406 µM)	0.15 (≈ 0.406 µM)	MIC (Proteus vulgaris A 232; A232, 24 H incubation at 37°C): 0.15 µg/mL (≈ 0.406 µM); MIC (Proteus vulgaris A 232; A232, 48 H incubation at 37°C): 0.15 µg/mL (≈ 0.406 µM); MIC (Providencia DU 48; DU48, 24 H incubation at 37°C): 1.2 µg/mL (≈ 3.25 µM); MIC (Providencia DU 48; DU48, 48 H incubation at 37°C): 1.2 µg/mL (≈ 3.25 µM); MIC ([4]; 24 H incubation at 37°C): 0.3 µg/mL (≈ 0.812 µM); MIC ([4]; 48 H incubation at 37°C): 0.3 µg/mL (≈ 0.812 µM); MIC (Serratia marcesceus 2532; 24 H incubation at 37°C): 10 µg/mL (≈ 27.1 µM); MIC (Serratia marcesceus 2532; 48 H incubation at 37°C): 10 µg/mL (≈ 27.1 µM)
C[C@@H]1[C@H](NC(=O)/C(=N\OC(C)(C)C(=O)O)c2csc(N)n2)C(=O)N1c1nn[nH]n1 (racemic) [Prod. ex.7, (3SR, 4RS) 3-//2-(-2-aminothiazol-4-yl) 2-/(1-carboxy 1-méthyléthoxy) imino/ acétyl/ aminol/4-méthyl 1-(tétrazol-5-yl) 2-azétidinone isomère syn]	2.5 (≈ 5.9 µM)	2.5 (≈ 5.9 µM)	0.3 (≈ 0.709 µM)	0.6 (≈ 1.42 µM)	1.2 (≈ 2.83 µM)	1.2 (≈ 2.83 µM)	0.6 (≈ 1.42 µM)	0.6 (≈ 1.42 µM)	0.6 (≈ 1.42 µM)	1.2 (≈ 2.83 µM)	0.6 (≈ 1.42 µM)	0.6 (≈ 1.42 µM)	1.2 (≈ 2.83 µM)	1.2 (≈ 2.83 µM)	1.2 (≈ 2.83 µM)	1.2 (≈ 2.83 µM)	2.5 (≈ 5.9 µM)	2.5 (≈ 5.9 µM)	0.15 (≈ 0.354 µM)	0.15 (≈ 0.354 µM)	MIC (Proteus vulgaris A 232; A232, 24 H incubation at 37°C): 0.08 µg/mL (≈ 0.189 µM); MIC (Proteus vulgaris A 232; A232, 48 H incubation at 37°C): 0.08 µg/mL (≈ 0.189 µM); MIC (Providencia DU 48; DU48, 24 H incubation at 37°C): 0.6 µg/mL (≈ 1.42 µM); MIC (Providencia DU 48; DU48, 48 H incubation at 37°C): 0.6 µg/mL (≈ 1.42 µM); MIC ([5]; 24 H incubation at 37°C): 0.6 µg/mL (≈ 1.42 µM); MIC ([5]; 48 H incubation at 37°C): 0.6 µg/mL (≈ 1.42 µM); MIC ([4]; 24 H incubation at 37°C): 0.6 µg/mL (≈ 1.42 µM); MIC ([4]; 48 H incubation at 37°C): 0.6 µg/mL (≈ 1.42 µM); MIC (Serratia marcesceus 2532; 24 H incubation at 37°C): 1.2 µg/mL (≈ 2.83 µM); MIC (Serratia marcesceus 2532; 48 H incubation at 37°C): 1.2 µg/mL (≈ 2.83 µM)
